Reference: US11504380B2, “Method of treatment of cirrhosis” (INVENTIVA, priority 2019, dated 2022)

Assays:
Type in all cases: in vivo, Sprague Dawley rats
[1] = system: rat model of cirrhosis induced by the administration of thioacetamide (TAA); assay: Systemic and hepatic hemodynamics, ascites and body/organ weights in TAA-induced cirrhotic rats; conditions: for IHVR (intrahepatic resistance) / PBF (portal blood flow) / PP (portal pressure): 100 mg/kg/day
Text: Lanifibranor has been assessed in a rat model of cirrhosis induced by the administration of thioacetamide (TAA), which administration leads to the development of fibrosis in the early time points and then of cirrhosis in the late time points, turning for the majority of the animals to decompensated cirrhosis. Sprague Dawley rats (12-15 rats per groups) were intraperitoneally administered TAA (twice a week) for a period of twelve weeks to ensure reaching decompensated cirrhosis. At the end of this period, a TAA detoxification period of four days was observed. The rats were then orally administered for two weeks with either lanifibranor at 100 mg/kg/day in vehicle (methylcellulose 1%+poloxamer-188 0.1%), or with vehicle alone (control). At the end of the two weeks of treatment in vivo systemic and hepatic hemodynamics were determined and rats were then sacrificed, and plasma samples and liver tissue were harvested. The hemodynamics measurements were obtained as follow: mean arterial pressure (MAP) and heart rate (HR) were measured by cannulating the femoral artery; portal pressure (PP) was measured by cannulating the ileocolic vein, both with a heparinized p50 catheter (Portex) connected to a pressure probe; portal blood flow (PBF) was determined with the help of specific non-constrictive perivascular ultrasonic transit-time flow probe (Transonic Systems Inc.).

[2] = system: rat model of cirrhosis induced by the administration of thioacetamide (TAA); assay: Liver histology (Sirius Red collagen staining) and electron microscopy of sinusoidal fenestrae in TAA-induced cirrhotic rats; conditions: TAA-exposed rats, 100 mg/kg
Text: (§1) Lanifibranor has been assessed in a rat model of cirrhosis induced by the administration of thioacetamide (TAA), which administration leads to the development of fibrosis in the early time points and then of cirrhosis in the late time points, turning for the majority of the animals to decompensated cirrhosis. Sprague Dawley rats (12-15 rats per groups) were intraperitoneally administered TAA (twice a week) for a period of twelve weeks to ensure reaching decompensated cirrhosis. At the end of this period, a TAA detoxification period of four days was observed. The rats were then orally administered for two weeks with either lanifibranor at 100 mg/kg/day in vehicle (methylcellulose 1%+poloxamer-188 0.1%), or with vehicle alone (control). At the end of the two weeks of treatment in vivo systemic and hepatic hemodynamics were determined and rats were then sacrificed, and plasma samples and liver tissue were harvested. Liver tissue samples for histology were fixed in 4% formaldehyde (Sigma), embedded in paraffin, sectioned and stained with 0.1% Sirius Red in picric acid aqueous solution (Sigma). Sinusoidal fenestrae were analyzed by electronic microscopy.

[3] = system: rat model of cirrhosis induced by the administration of thioacetamide (TAA); assay: Liver tissue protein levels by Western blot in TAA-induced cirrhotic rats; conditions: TAA-exposed rats, 100 mg/kg, vs vehicle
Text: as §1, with “Triton lysis buffer was used for protein extraction of liver” for “Liver”, “samples. Proteins” for “samples for histology”, “separated by molecular weight by electrophoresis using a sodium dodecylsulphate polyacrylamide gel,” for “fixed in 4% formaldehyde (Sigma), embedded in paraffin, sectioned”, “transferred to a nitrocellulose membrane (Western blot).” for “stained with 0.1% Sirius Red in picric acid aqueous solution (Sigma). Sinusoidal fenestrae were analyzed by electronic microscopy.”

[4] = system: rat model of cirrhosis induced by the administration of thioacetamide (TAA); assay: Liver tissue mRNA expression by qPCR in TAA-induced cirrhotic rats; conditions: TAA-exposed rats, 100 mg/kg
Text: as §1, with “RNA was extracted from liver” for “Liver”, “using Trizol (Life Technologies),” for “samples for histology were fixed in 4% formaldehyde (Sigma), embedded in paraffin, sectioned”, “quantified” for “stained”, “the help of a NanoDrop spectrophotometer. Reverse transcription was carried out following QuantiTect reverse transcription kit (Qiagen). qPCR was performed using PowerUp SYBR Green Master Mix (Thermo Fisher) and specific primers.” for “0.1% Sirius Red in picric acid aqueous solution (Sigma). Sinusoidal fenestrae were analyzed by electronic microscopy.”

[5] = system: rat model of cirrhosis induced by the administration of thioacetamide (TAA); assay: AST protein content in plasma of TAA-induced cirrhotic rats; conditions: TAA-exposed rats, 100 mg/kg, vs vehicle, p<0.005 (FIG. 8)
Text: as §1, with “harvested.” for “harvested. Liver tissue samples for histology were fixed in 4% formaldehyde (Sigma), embedded in paraffin, sectioned and stained with 0.1% Sirius Red in picric acid aqueous solution (Sigma). Sinusoidal fenestrae were analyzed by electronic microscopy.”

[6] = TAA-exposed rats, 100 mg/kg/day orally for two weeks
[7] = TAA-exposed rats, 100 mg/kg/day orally for two weeks, listed as lanifibranor

Question: How did the Ascites [1, 6] turn out when `O=C(O)CCCc1cc2cc(Cl)ccc2n1S(=O)(=O)c1ccc2ncsc2c1` [Lanifibranor, 4-[1-(1,3-benzothiazol-6-ylsulfonyl)-5-chloroindol-2-yl]butanoic acid] was run?
Answer: 16%

Question: What about the “MAP (mean arterial pressure)” value [1, 6] of the same compound?
Answer: 84 ± 2 mmHg

Question: What about the “IHVR (intrahepatic resistance)” value [1, 6] of the same compound?
Answer: 0.53 ± 0.06 mmHg · min/mL

Question: What about the “PBF (portal blood flow)” value [1, 6] of the same compound?
Answer: 23.5 ± 2.1 mL/min

Question: And the “PP (portal pressure)” value [1, 6]?
Answer: 11.2 ± 0.5 mmHg

Question: What about the “IHVR (intrahepatic resistance)” value [1, 7] of the same compound?
Answer: 0.75±0.1 mmHg · min/mL

Question: What about the “PBF (portal blood flow)” value [1, 7] of the same compound?
Answer: no significant changes

Question: And the “PP (portal pressure)” value [1, 7]?
Answer: 11.2±0.5 mmHg

Question: What about the systemic hemodynamics ([1]; cirrhotic rats administered with lanifibranor vs vehicle) of the same compound?
Answer: No effects

Question: And the “collagen deposition (PicroSirius Red, PSR, staining)” value [2]?
Answer: 12.3%

Question: And the “sinusoidal capillarization (sinusoidal fenestrae)” value ([2]; vs vehicle, p<0.05 (FIG. 4), electronic microscopy)?
Answer: significantly reduced

Question: And the “histological decrease in collagen deposition compared to vehicle” value ([2]; PicroSirius Red staining)?
Answer: 32%

Question: What about the “protein level of Von Willebrand factor” value ([3]; p<0.01 (FIG. 5)) of the same compound?
Answer: significantly reduced

Question: What about the “α-SMA expression at protein level” value ([3]; p<0.05 (FIG. 3a)) of the same compound?
Answer: significantly reduced

Question: What about the “protein level of Desmin” value ([3]; p<0.05 (FIG. 3b)) of the same compound?
Answer: significantly reduced

Question: And the “VCAM-1 mRNA expression” value ([4]; vs vehicle (FIG. 6))?
Answer: a trend

Question: And the “E-Selectin mRNA” value ([4]; vs vehicle, P<0.05 (FIG. 6))?
Answer: significant decrease

Question: What about the “ICAM-1 mRNA” value ([4]; vs vehicle, P<0.05 (FIG. 6)) of the same compound?
Answer: significant decrease

Question: What about the “TIMP1 mRNA expression” value ([4]; vs vehicle, p<0.001 (FIG. 2)) of the same compound?
Answer: significantly reduced

Question: What about the “collagen 1a1 mRNA expression” value ([4]; vs vehicle, p<0.005 (FIG. 1)) of the same compound?
Answer: significant decrease

Question: What about the “α-SMA expression at mRNA level” value ([4]; vs vehicle, p<0.005 (FIG. 3a)) of the same compound?
Answer: significantly reduced

Question: And the “TIMP2 mRNA expression” value ([4]; vs vehicle, p<0.05 (FIG. 2))?
Answer: significantly reduced

Question: And the “IL-6 mRNA expression” value ([4]; vs vehicle, p<0.05 (FIG. 7))?
Answer: significantly decreased

Question: And the “AST protein content in plasma” value [5]?
Answer: significantly decreased
